Measurements: patent publication US20110178092A1, “HIV-1 Protease Inhibitors” (priority 2005, published 2011)

These compounds were tested against T1, wild type HIV-1 protease (Q7K) (Human immunodeficiency virus type 1 group M subtype B, UniProt P04585, Q495K) (assay: FRET HIV-1 protease inhibition assay, wild type). Settings: not given.
T1 construct: Wide type HIV-1 protease (Q7K)
Format: biochemical
Description: Biological Evaluation of Selected Compounds of the Invention. HIV protease inhibitor activities were determined by fluorescence resonance energy transfer (FRET) method. […] Inhibitor binding dissociation constant (Ki value) was obtained by nonlinear regression fitting to the plot of initial velocity as a function of inhibitor concentration based on Morrison equation.
The energy transfer donor (EDANS) and acceptor (DABCYL) were labeled at its two ends respectively to perform FRET. Fluorescence measurements were carried out on PTI fluorescence spectrophotometer (Photon Technology International) at 30° C. Excitation and emission wavelengths were set at 340 nm and 490 nm, respectively. Each reaction was recorded for about 10 min. Wide type HIV-1 protease (Q7K) and its MDR mutants M1 (L10I, G48V, I54V, L63P, V82A), M2 (D30N, L63P, N88D), and M3 (L10I, L63P, A71V, G73S, I84V, L90M) were desalted through PD-10 columns (Amersham Biosciences). Sodium Acetate (20 mM, pH 5) was used as elution buffer. Apparent protease concentrations were around 50 nM estimated by UV spectrophotometer (Shimadzu) at 280 nm. All inhibitors were dissolved in DMSO and diluted to appropriate concentrations. Protease (2 μL) and inhibitor (2 μL) or DMSO were mixed and incubated for 20-30 min at room temperature before initialing substrate cleavage reaction. Throughout this work, 150 μL of 1 μM substrate was used. Substrate buffer is composite of 0.1 M sodium acetate, 1 M sodium chloride, 1 mM ethylenediaminetetraacetic acid (EDTA), 1 mM dithiothreitol (DTT), 2% dimethylsulfoxide (DMSO) and 1 mg/mL bovine serum albumin (BSA) with an adjusted pH 4.7. Inhibitor binding dissociation constant (Ki) was obtained by nonlinear regression fitting (GraFit 5, Erithacus software) to the plot of initial velocity as a function of inhibitor concentrations based on Morrison equation.
In the case of COc1ccc(S(=O)(=O)N(CC(C)C)C[C@@H](O)[C@H](Cc2ccccc2)NC(=O)[C@H]2CN(c3ccccc3)C(=O)O2)cc1 [20a, (5R)—N-[(1S,2R)-1-Benzyl-2-hydroxy-3-[isobutyl[(4-methoxyphenyl)sulfonyl]amino]-propyl]-2-oxo-3-phenyloxazolidine-S-carboxamide], the Ki is reported as 10.7 nM. COc1ccc(S(=O)(=O)N(CC(C)C)C[C@@H](O)[C@H](Cc2ccccc2)NC(=O)[C@@H]2CN(c3cccc(F)c3)C(=O)O2)cc1 [21b, (5S)—N-[(1S,2R)-1-Benzyl-2-hydroxy-3-[isobutyl[(4-methoxyphenyl)sulfonyl]amino]-propyl]-3-(3-fluorophenyl)-2-oxo-oxazolidine-S-carboxamide] showed a Ki of 0.08 nM. Compound COc1ccc(S(=O)(=O)N(CC(C)C)C[C@@H](O)[C@H](Cc2ccccc2)NC(=O)[C@@H]2CN(c3cccc(C(F)(F)F)c3)C(=O)O2)cc1 [21d, (5S)—N-[(1S,2R)-1-Benzyl-2-hydroxy-3-[isobutyl[(4-methoxyphenyl)sulfonyl]amino]-propyl]-2-oxo-3-[(3-trifluoromethyl)phenyl]oxazolidine-S-carboxamide] has a Ki of 0.006 nM. Compound COc1ccc(S(=O)(=O)N(CC(C)C)C[C@@H](O)[C@H](Cc2ccccc2)NC(=O)[C@@H]2CN(c3cccc(OC)c3)C(=O)O2)cc1 [21g, (5S)—N-[(1S,2R)-1-Benzyl-2-hydroxy-3-[isobutyl[(4-methoxyphenyl)sulfonyl]-amino]propyl]-3-(3-methoxyphenyl)-2-oxo-oxazolidine-S-carboxamide] has a Ki of 0.045 nM. CC(C)CN(C[C@@H](O)[C@H](Cc1ccccc1)NC(=O)[C@H]1CN(c2ccccc2)C(=O)O1)S(=O)(=O)c1ccc(N)cc1 [24a, (5R)—N-[(1S,2R)-3-[[(4-Aminophenyl)sulfonyl](isobutyl)amino]-1-benzyl-2-hydroxypropyl]-2-oxo-3-phenyloxazolidine-S-carboxamide] showed a Ki of 37.4 nM. Compound CC(=O)c1cccc(N2C[C@@H](C(=O)N[C@@H](Cc3ccccc3)[C@H](O)CN(CC(C)C)S(=O)(=O)c3ccc(N)cc3)OC2=O)c1 [25e, (5S)-3-(3-Acetylphenyl)-N-[(1S,2R)-3-[[(4-aminophenyl)sulfonyl](isobutyl)amino]-1-benzyl-2-hydroxypropyl]-2-oxo-oxazolidine-S-carboxamide] has a Ki of 0.032 nM. CC(=O)c1cccc(N2C[C@@H](C(=O)N[C@@H](Cc3ccccc3)[C@H](O)CN(CC(C)C)S(=O)(=O)c3ccc4c(c3)OCO4)OC2=O)c1 [26e, (5S)-3-(3-Acetylphenyl)-N-[(1S,2R)-3-[[(benzo-[1,3]-dioxole-5-sulfonyl)](isobutyl)amino]-1-benzyl-2-hydroxypropyl]-2-oxo-oxazolidine-S-carboxamide] was tested, and the Ki was 0.006 nM.

Same assay, conditions: wild type HIV-1 protease (Q7K), FRET, in triplicate; read-out: Ki
Work on COc1ccc(S(=O)(=O)N(CC(C)C)C[C@@H](O)[C@H](Cc2ccccc2)NC(=O)[C@@H]2CN(c3ccccc3)C(=O)O2)cc1 [21a, (5S)—N-[(1S,2R)-1-Benzyl-2-hydroxy-3-[isobutyl[(4-methoxyphenyl)sulfonyl]amino]propyl]-2-oxo-3-phenyloxazolidine-S-carboxamide] yielded a Ki of 0.1 nM. With COc1ccc(S(=O)(=O)N(CC(C)C)C[C@@H](O)[C@H](Cc2ccccc2)NC(=O)[C@@H]2CN(c3ccc(F)c(F)c3)C(=O)O2)cc1 [21c, (5S)—N-[(1S,2R)-1-Benzyl-2-hydroxy-3-[isobutyl[(4-methoxyphenyl)sulfonyl]amino]-propyl]-3-(3,4-difluorophenyl)-2-oxo-oxazolidinone-S-carboxamide] the Ki was 0.066 nM. In the case of CC(C)CN(C[C@@H](O)[C@H](Cc1ccccc1)NC(=O)[C@@H]1CN(c2ccccc2)C(=O)O1)S(=O)(=O)c1ccc(N)cc1 [25a, (5S)—N-[(1S,2R)-3-[[(4-Aminophenyl)sulfonyl](isobutyl)amino]-1-benzyl-2-hydroxypropyl]-2-oxo-3-phenyloxazolidine-S-carboxamide], the Ki is reported as 0.53 nM. CC(C)CN(C[C@@H](O)[C@H](Cc1ccccc1)NC(=O)[C@@H]1CN(c2cccc(C(F)(F)F)c2)C(=O)O1)S(=O)(=O)c1ccc(N)cc1 [25d, (5S)—N-[(1S,2R)-3-[[(4-Aminophenyl)sulfonyl](isobutyl)amino]-1-benzyl-2-hydroxypropyl]-2-oxo-3-[(3-trifluoromethyl)phenyl]oxazolidine-S-carboxamide] gave a Ki of 0.042 nM. For CC(C)CN(C[C@@H](O)[C@H](Cc1ccccc1)NC(=O)[C@@H]1CN(c2cccc(C(F)(F)F)c2)C(=O)O1)S(=O)(=O)c1ccc2c(c1)OCO2 [26d, (5S)—N-[(1S,2R)-3-[[(Benzo-[1,3]-dioxole-S-sulfonyl)](isobutyl)amino]-1-benzyl-2-hydroxypropyl]-2-oxo-3-[(3-trifluoromethyl)phenyl]oxazolidine-S-carboxamide], the Ki was 0.016 nM. With CC(=O)c1ccc(N2C[C@@H](C(=O)N[C@@H](Cc3ccccc3)[C@H](O)CN(CC(C)C)S(=O)(=O)c3ccc4c(c3)OCO4)OC2=O)cc1 [26f, (5S)-3-(4-Acetylphenyl)-N-[(1S,2R)-3-[[(benzo-[1,3]-dioxole-S-sulfonyl)](isobutyl)-amino]-1-benzyl-2-hydroxypropyl]-2-oxo-oxazolidine-S-carboxamide] the Ki was 0.016 nM. With COc1ccc(S(=O)(=O)N(CC(C)C)C[C@@H](O)[C@H](Cc2ccccc2)NC(=O)[C@@H]2CN(c3cccc(F)c3)C(=O)O2)cc1F [27b, (5S)—N-[(1S,2R)-1-Benzyl-3-[[(3-fluoro-4-methoxyphenyl)sulfonyl](isobutyl)amino]-2-hydroxypropyl]-3-(3-fluorophenyl)-2-oxo-oxazolidine-S-carboxamide] the Ki was 0.07 nM. Compound COc1ccc(S(=O)(=O)N(CC(C)C)C[C@@H](O)[C@H](Cc2ccccc2)NC(=O)[C@@H]2CN(c3ccc(F)c(F)c3)C(=O)O2)cc1F [27c, (5S)—N-[(1S,2R)-1-Benzyl-3-[[(3-fluoro-4-methoxyphenyl)sulfonyl](isobutyl)amino]-2-hydroxypropyl]-3-(3,4-difluorophenyl)-2-oxo-oxazolidine-S-carboxamide] has a Ki of 0.343 nM. Work on COc1ccc(S(=O)(=O)N(CC(C)C)C[C@@H](O)[C@H](Cc2ccccc2)NC(=O)[C@@H]2CN(c3cccc(C(F)(F)F)c3)C(=O)O2)cc1F [27d, (5S)—N-[(1S,2R)-1-Benzyl-3-[[(3-fluoro-4-methoxyphenyl)sulfonyl](isobutyl)amino]-2-hydroxypropyl]-2-oxo-3-[(3-trifluoromethyl)phenyl)oxazolidine-S-carboxamide] yielded a Ki of 0.072 nM. COc1ccc(S(=O)(=O)N(CC(C)C)C[C@@H](O)[C@H](Cc2ccccc2)NC(=O)[C@@H]2CN(c3ccc(C(C)=O)cc3)C(=O)O2)cc1F [27f, (S)-3-(4-Acetylphenyl)-N-[(1S,2R)-1-Benzyl-3-[[(3-fluoro-4-methoxyphenyl)-sulfonyl](isobutyl)amino]-2-hydroxypropyl]-2-oxo-oxazolidine-S-carboxamide] was tested, and the Ki was 0.08 nM.

Same assay, conditions: wild type HIV-1 protease, qualitative statement
CC(C)CN(C[C@@H](O)[C@H](Cc1ccccc1)NC(=O)[C@@H]1CN(c2cccc(F)c2)C(=O)O1)S(=O)(=O)c1ccc(N)cc1 [25b, (5S)—N-[(1S,2R)-3-[[(4-Aminophenyl)sulfonyl](isobutyl)amino]-1-benzyl-2-hydroxypropyl]-3-(3-fluorophenyl)-2-oxo-oxazolidine-S-carboxamide] was tested, and the “inhibitory activity against wild type HIV-1 protease (in words)” value (“inhibitory activity” for short) was “relatively small improvement in activities compared to 25a”. In the case of CC(C)CN(C[C@@H](O)[C@H](Cc1ccccc1)NC(=O)[C@@H]1CN(c2ccc(F)c(F)c2)C(=O)O1)S(=O)(=O)c1ccc(N)cc1 [25c, (5S)—N-[(1S,2R)-3-[[(4-Aminophenyl)sulfonyl](isobutyl)amino]-1-benzyl-2-hydroxypropyl]-3-(3,4-difluorophenyl)-2-oxo-oxazolidine-S-carboxamide], the “inhibitory activity” value is reported as “relatively small improvement in activities compared to 25a”. With CC(=O)c1ccc(N2C[C@@H](C(=O)N[C@@H](Cc3ccccc3)[C@H](O)CN(CC(C)C)S(=O)(=O)c3ccc(N)cc3)OC2=O)cc1 [25f, (5S)-3-(4-Acetylphenyl)-N-[(1S,2R)-3-[[(4-aminophenyl)sulfonyl](isobutyl)amino]-1-benzyl-2-hydroxypropyl]-2-oxo-oxazolidine-S-carboxamide] the “inhibitory activity” value was “relatively small improvement in activities compared to 25a”. In the case of COc1cccc(S(=O)(=O)N(CC(C)C)C[C@@H](O)[C@H](Cc2ccccc2)NC(=O)[C@@H]2CN(c3ccccc3)C(=O)O2)c1 [29a, (5S)—N-[(1S,2R)-1-Benzyl-2-hydroxy-3-[isobutyl[(3-methoxyphenyl)sulfonyl]amino]-propyl]-2-oxo-3-phenyloxazolidine-S-carboxamide], the “inhibitory activity” value is reported as “significant loss of protease inhibitory activity”. For COc1cccc(S(=O)(=O)N(CC(C)C)C[C@@H](O)[C@H](Cc2ccccc2)NC(=O)[C@@H]2CN(c3ccc(C(C)=O)cc3)C(=O)O2)c1 [29f, (5S)-3-(4-Acetylphenyl)-N-[(1S,2R)-1-benzyl-2-hydroxy-3-[isobutyl[(3-methoxyphenyl)-sulfonyl]amino]propyl]-2-oxo-oxazolidine-S-carboxamide], the “inhibitory activity” value was “significant loss of protease inhibitory activity”.
